Seven compounds from patent US20100069395A1, “Pyrazolo[1,5-a]pyrimidine-3-carboxylic acid compounds as protein kinase inhibitors” (priority 2006, published 2010) can be followed below.

SMILES strings stand for the structures.

On to `Cc1cccc(C)c1NC(=O)c1cnc2c(-c3cccc(N4CCN(C)CC4)c3)cnn2c1` [Example 4, 3-[3-(4-Methyl-piperazin-1-yl)-phenyl]-pyrazolo[1,5-a]pyrimidine-6-carboxylic acid(2,6-dimethyl-phenyl)-amide], for which the melting point (in general, the temperature of the solid-liquid transition) was 227 to 229 °C. Next, `Cc1ccc(NC(=O)c2ccc(F)c(C(F)(F)F)c2)cc1NC(=O)c1cnc2ccnn2c1` [Example 6, Pyrazolo[1,5-a]pyrimidine-6-carboxylic acid[5-(4-fluoro-3-trifluoromthyl-benzoylamino)-2-methyl-phenyl]-amide]: 267 to 269 °C; `Cc1ccc(C(=O)Nc2cccc(C(F)(F)F)c2)cc1NC(=O)C1=CNc2ccnn2C1` [Example 3, 4,7-Dihydro-pyrazolo[1,5-a]pyrimidine-6-carboxylic acid [2-methyl-5-(3-trifluoromethyl-phenylcarbamoyl)-phenyl]-amide]: 259 to 263 °C; `Cc1ccc(C(=O)Nc2cccc(C(F)(F)F)c2)cc1NC(=O)c1cnc2ccnn2c1` [Example 1, Pyrazolo[1,5-a]pyrimidine-6-carboxylic acid[2-methyl-5-(3-trifluoromethyl-phenylcarbamoyl)-phenyl]-amide]: 222 to 224 °C. As for `COc1ccc(-c2cnn3cc(C(=O)Nc4c(C)cccc4C)cnc23)cc1OC` [Example 5, 3-(3,4-Dimethoxy-phenyl)-pyrazolo[1,5-a]pyrimidine-6-carboxylic acid (2,6-dimethylphenyl)-amide], the figure is 230 to 232 °C; as for `COc1ccc(C(=O)Nc2ccc(C)c(NC(=O)c3cnc4ccnn4c3)c2)cc1C(F)(F)F` [Example 7, Pyrazolo[1,5-a]pyrimidine-6-carboxylic acid[5-(4-methoxy-3-trifluoromethyl-benzoylamino)-2-methyl-phenyl]-amide], 256 to 258 °C. For the compound `Cc1ccc(NC(=O)c2cccc(C(F)(F)F)c2)cc1NC(=O)c1cnc2ccnn2c1` [Example 2, Pyrazolo[1,5-a]pyrimidine-6-carboxylic acid[2-methyl-5-(3-trifluoromethyl-benzoylamino)-phenyl]-amide], the melting point was 239 to 241 °C.
